Source: paper PMC4561207 (Child's nervous system : ChNS : official journal of the …, 2015)

Tests used:
[1] = Steady-state plasma pharmacokinetics, day 28 of course 1; type: in vivo, human
[2] = tested on: progressive glioblastoma multiforme; conditions: adults, therapy initiated at 45mg; cited from earlier work

Compound: COc1cc2c(Oc3ccc4[nH]c(C)cc4c3F)ncnc2cc1OCCCN1CCCC1 [cediranib, Cediranib]
- Css,min, median ([1]; 20mg/m^2 QD, day 28 pre-dose trough): 0.0115 µg/mL
- Css,max, median ([1]; day 28, steady state, plasma): 0.048 µg/mL
- Tmax ([1]; human, plasma, oral): 2 to 6 h
- AUC ([1]; human, plasma, oral, 32 mg/m2, steady-state AUC0—tlast, 32mg/m^2 QD, n=2): 0.892 µg·h/mL
- AUC ([1]; human, plasma, oral, 32 mg/m2, steady-state AUC0—tlast, range, 32mg/m^2 QD, n=2): 0.522 to 1.26 µg·h/mL
- AUC ([1]; human, plasma, oral, 40 mg/m2, steady-state AUC0—tlast, 40mg/m^2 QD, n=1): 0.77 µg·h/mL
- 6-month progression-free survival [2]: 26%
- radiographic response, patients [2]: 57%
